For this experiment, the target named is T1, OCTR-1 (Caenorhabditis elegans, UniProt Q7JP62).
T1 construct: cDNA in KSM vector, cRNA injected into Xenopus laevis oocytes; co-expressed with mouse GIRK1/GIRK2 as reporter
T1 sequence (Q7JP62 1-406): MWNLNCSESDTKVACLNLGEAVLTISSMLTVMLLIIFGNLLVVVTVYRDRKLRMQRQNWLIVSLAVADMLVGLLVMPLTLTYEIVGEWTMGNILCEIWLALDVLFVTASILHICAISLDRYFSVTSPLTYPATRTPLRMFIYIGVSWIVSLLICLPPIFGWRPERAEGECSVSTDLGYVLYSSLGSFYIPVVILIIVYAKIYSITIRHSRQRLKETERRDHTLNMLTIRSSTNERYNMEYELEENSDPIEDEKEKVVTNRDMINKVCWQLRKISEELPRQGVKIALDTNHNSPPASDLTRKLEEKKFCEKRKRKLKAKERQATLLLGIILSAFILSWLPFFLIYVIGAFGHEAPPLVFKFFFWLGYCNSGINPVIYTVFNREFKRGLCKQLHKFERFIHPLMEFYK
Put plainly: two-electrode voltage clamp, GIRK1/[…] current, Xenopus oocytes. Format: cell-based. (In general: Two-electrode voltage clamp is typically applied to oocytes expressing channels or transporters.)

The term EC50 denotes the concentration that produces a half-maximal response. Low readings indicate a more potent agent, high ones a less potent agent.

The structures appear in SMILES notation.

For the compound `NC[C@H](O)c1ccc(O)cc1` [Oct, octopamine], the EC50 is 0.114 µM. In other words, the sub-micromolar range.

In the case of `NCCc1ccc(O)cc1` [Tyr, tyramine], the EC50 amounted to 12.9 µM.

These data come from article PMC7758879, “Tyramine Acts Downstream of Neuronal XBP-1s to Coordinate Inter-tissue UPR^ER Activation and Behavior in C. elegans” (Developmental Cell, 2020).
